The source of these data is patent US9028887B2, “Method improve spatial memory via pterostilbene administration” (The United States of America, as represented by the …, priority 2007, dated 2015).

Each structure is given as a SMILES string.

Assay [1] deals with striatal slices. The experiment in a line: Oxotremorine enhancement of K+-evoked dopamine release from striatal slices of diet-fed rats. Conditions: for dopamine release (oxotremorine-enhanced striatal K+-ERDA), H2O2-treated vs non-H2O2-treated: 50 μM H2O2, 500 μM oxotremorine. The assay is classed as in vivo, rat. The source says:
The muscarinic enhancement of K^+-evoked dopamine release (K^+-ERDA) from superfused striatal slices is an indicator of receptor sensitivity and striatal function and is sensitive to aging and oxidative stress as disclosed in Joseph et al., 1988. Brain Res., 454:140-8: Joseph et al., 1988. Brain Res., 454:149-55; Joseph J., et al., 1990. Brain Res., 537:40-48; Joseph et al., 1996. Free Radic. Biol. Med., 20: 821-30 and herein incorporated by reference. Additionally, muscarinic enhancement of dopamine release is sensitive to dietary supplementation as disclosed in Joseph et al., 1998. J. Neurosci., 18: 8047-8055; Joseph et al., 1999. J. Neurosci., 19: 8114-8121; Youdim et al., 2000. Nutr Neurosci., 3: 383-97; Shukitt-Hale et al., 2005. Age., 27: 49-57; Shukitt-Hale et al., 2006. Nutrition, 22: 295-302 and herein incorporated by reference. The protective capacity of the striatal tissue obtained from the control and supplemented groups were assessed by examining differences in the oxotremorine-enhancement of striatal K^+-ERDA. Dopamine release was conducted 2-3 weeks following behavioral testing on freshly dissected and cross cut (300 μm, McIlwain tissue chopper) striatal slices from subject brains that were fed a high dose, low dose and control diet. The slices were placed in small glass vials containing modified Krebs-Ringer basal release medium (BRM) that had been bubbled for 30 min with 95% O2/5% CO2 and containing 21 mM NaHCO3, 3.4 mM glucose, 1.3 mM NaH2PO4, 1 mM EGTA, 0.93 mM MgCl2, 127 mM NaCl and 2.5 mM KCl (low KCl) (pH 7.4). Half of the tissue was treated with 50 μM […] to assess the effect of diet under conditions of oxidative stress. […] Following this equilibration period, the medium was switched to one containing (in mM) KCl 30 (high KCl), CaCl2.2H2O 1.26 (in place of EGTA), NaCl 57, and 0 or 500 μM oxotremorine and then the enhancement of K^+-ERDA was assessed. Dopamine release was quantitated by HPLC coupled to electrochemical detection and expressed as pmoles/mg protein as determined by the Lowry procedure.

The subject of assay [2] is inducible nitric oxide synthase (iNOS). Conditions: HT-29 human adenocarcinoma cell lines; Suh et al., 2007; cited from earlier work.
The test system of assay [3] is 19-month-old male Fischer 344 rats. The experiment in a line: Morris Water Maze, working memory version, in aged rats on pterostilbene diet. In kind it is in vivo, rat. As to conditions: for distance to find the platform, Trial 1 vs Trial 2: days 3 and 4; for latency to find the platform, Trial 1 vs Trial 2: days 3 and 4, ninth week. An excerpt: Forty-two 19-month-old male Fischer 344 rats were obtained from the NIA colony (Harlan Sprague Dawley, Indianapolis, Ind.). The rats were individually housed in stainless steel mesh suspended cages, provided food and water ad libitum, and maintained on a 12-hour light/dark cycle. The rats were given one week to adjust to their new environment, after which time they were weight matched and then randomly placed on one of three diets for 12-13 weeks total (n=14/group): control, low dose pterostilbene (0.004%, equivalent to 2.5 mg/kg body weight), or high dose pterostilbene (0.016%, equivalent to 10 mg/kg body weight). All animals were observed daily for clinical signs of disease.
The pterostilbene diets were prepared at Harlan Teklad (Madison, Wis.) by adding crystalline pterostilbene to the control diet, of 40 mg/kg diet, 0.004% w/w for low dose, 160 mg/kg diet, 0.016% w/w for high dose. The amount of corn in the control diet was adjusted to compensate for the added volume of the pterostilbene. The rats were maintained on either the control or pterostilbene diet for eight weeks before motor testing and nine weeks before cognitive testing at 21 months.
The Morris Water Maze (MWM) is a method to test spatial learning and memory of subjects. Developed by Richard Morris, the MWM is an age and diet sensitive learning paradigm that requires a subject to locate a hidden platform (10 cm in diameter) positioned below the surface (2 cm) of a circular pool of water (134 cm in diameter×50 cm in height, maintained at 23° C.) based on distal cues, and to remember its location from the previous trial. Accurate navigation is rewarded with escape from the water onto the platform, for which the subject uses distal cues such as posters, the experimenter, a computer, cage racks, to effectively locate. The working memory version of the MWM (Brandeis et al., 1989. Int J Neurosci. 48:29-69 Morris R., 1984. J Neurosci Methods. 11; 47-60.) was performed daily for four consecutive days during the ninth week of treatment, with a morning and an afternoon session, two trials each session, with a 10 minute inter-trial interval between the two trials. Rats were tested in a random manner, with the restriction that one subject from each group be tested in succession. At the beginning of each trial, the subject was gently immersed in the water at one of four randomized start locations. […] Once the subject reached the platform, it remained there for 15 sec (Trial 1; reference memory or acquisition trial). The subject was returned to its home cage between trials (10 min). Trial 2 (the working memory or retrieval trial) used the same platform location and start position as Trial 1. Performances were videotaped and analyzed with image tracking software (HVS Image, UK), which allows measurements of latency (sec) time to find the platform), path length (cm), and swimming speed (cm/sec; […]). A detailed description of the maze and the paradigm used is disclosed in Shukitt-Hale et al., 1998. Experimental Gerontology, 33:615-624, and incorporated herein by reference.

In assay [4] the target is cyclooxygenase-1 (Homo sapiens, UniProt P23219). Conditions: Rimando et al., 2002; cited from earlier work.
Chain of cyclooxygenase-1 (P23219 24-599, species assumed): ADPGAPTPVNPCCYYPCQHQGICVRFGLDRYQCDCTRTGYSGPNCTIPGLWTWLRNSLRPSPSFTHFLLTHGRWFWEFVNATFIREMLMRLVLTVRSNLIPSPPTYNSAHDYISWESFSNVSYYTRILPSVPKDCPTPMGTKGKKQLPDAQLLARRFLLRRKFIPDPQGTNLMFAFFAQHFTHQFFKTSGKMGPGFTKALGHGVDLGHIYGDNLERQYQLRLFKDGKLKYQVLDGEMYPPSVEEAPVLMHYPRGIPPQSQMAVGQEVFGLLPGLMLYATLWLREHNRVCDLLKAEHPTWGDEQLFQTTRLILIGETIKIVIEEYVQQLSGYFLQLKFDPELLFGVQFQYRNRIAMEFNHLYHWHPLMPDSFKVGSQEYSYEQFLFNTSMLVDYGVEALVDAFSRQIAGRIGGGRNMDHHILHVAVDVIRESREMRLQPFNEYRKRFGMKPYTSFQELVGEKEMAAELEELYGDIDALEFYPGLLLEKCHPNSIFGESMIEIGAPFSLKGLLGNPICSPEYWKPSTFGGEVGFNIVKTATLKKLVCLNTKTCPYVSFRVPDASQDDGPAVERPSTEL
Setting [5] is: high dose diet 0.016% (10 mg/kg body weight).

For `COc1cc(/C=C/c2ccc(O)cc2)cc(OC)c1` [pterostilbene, trans-3,5-dimethoxy-4′-hydroxystilbene], the “dopamine release (oxotremorine-enhanced striatal K+-ERDA) among diet groups” value in assay [1] (basal conditions (no H2O2), low and high dose vs control diet, p>0.05) is recorded as “no differences among the diet groups”. Moreover, the “dopamine release (oxotremorine-enhanced striatal K+-ERDA), H2O2-treated vs non-H2O2-treated” value in assay [1] (high dose diet 0.016%) and in assay [1] (low dose diet 0.004%) was “no differences were seen following H2O2 treatment” throughout. Besides, the “expression of iNOS” value in assay [2] is reported as “inhibits the expression of inducible nitric oxide synthase (iNOS)”. Further, in assay [3] (Trial 1 or Trial 2, low and high dose vs control diet), the “latency or distance to find the platform between the diet groups” value was “no differences in latency or distance to find the platform”. The “distance to find the platform, Trial 1 vs Trial 2” value in assay [3] (setting [5]) and in assay [3] (low dose diet 0.004% (2.5 mg/kg body weight)) was “significant (p<0.05) differences in distance” in each case. For the same molecule, the “latency to find the platform, Trial 1 vs Trial 2” value in assay [3] (setting [5]) is on record as “significant (p<0.05) difference in latency”; in assay [3] (low dose diet 0.004% (2.5 mg/kg body weight), p=0.09) it was “tended to improve from Trial 1 to Trial 2”. For the same molecule, in assay [3] (pterostilbene diets (low and high dose)), the “spatial memory performance compared to control diet fed group” value is on record as “improved spatial memory performance”. For the same molecule, the “inhibition of cyclooxygenase-1” value in assay [4] is reported as “moderate inhibition”.
